Test results taken from PMC3690672 (European journal of nuclear medicine and molecular imaging, 2009).
Values joined by “and” are separate entries in the source; they are usually repeats but may differ in a detail not shown here. Identical values can stand only once. Counter-ions that a name gives are not always drawn. Like-named read-outs stand apart in the source and are kept apart here.

Experiments:
[1] = molecular target: T1, P-glycoprotein (P-gp) at the blood-brain barrier (Rattus norvegicus, UniProt Q6PSM0); assay: in vivo
[2] = molecular target: T1, P-glycoprotein (P-gp) at the blood-brain barrier; conditions: for DV (Logan) of VPM / DV of VPM (2T4K model) / K1 of VPM (2T4K model) / k2 of VPM (2T4K model) / k3 of VPM (2T4K model) / k4 of VPM (2T4K model): whole brain, PET 120 min after, mean±SD
[3] = test system: multidrug resistance-associated proteins (MRPs), such as MRP1; conditions: cited from earlier work
[4] = test system: P-glycoprotein (P-gp) at the blood-brain barrier; assay type: in vivo, rat; conditions: tariquidar 15 mg/kg or elacridar 5 mg/kg at 60 min after radiotracer injection
[5] = Tariquidar or elacridar concentrations in plasma and brain by LC/MS; assay type: in vivo; conditions: rat, 5 mg/kg; for concentration at 180 min: intravenous
[6] = Hill fit of whole-brain DV vs inhibitor dose

T1 sequence (Q6PSM0 1-1272): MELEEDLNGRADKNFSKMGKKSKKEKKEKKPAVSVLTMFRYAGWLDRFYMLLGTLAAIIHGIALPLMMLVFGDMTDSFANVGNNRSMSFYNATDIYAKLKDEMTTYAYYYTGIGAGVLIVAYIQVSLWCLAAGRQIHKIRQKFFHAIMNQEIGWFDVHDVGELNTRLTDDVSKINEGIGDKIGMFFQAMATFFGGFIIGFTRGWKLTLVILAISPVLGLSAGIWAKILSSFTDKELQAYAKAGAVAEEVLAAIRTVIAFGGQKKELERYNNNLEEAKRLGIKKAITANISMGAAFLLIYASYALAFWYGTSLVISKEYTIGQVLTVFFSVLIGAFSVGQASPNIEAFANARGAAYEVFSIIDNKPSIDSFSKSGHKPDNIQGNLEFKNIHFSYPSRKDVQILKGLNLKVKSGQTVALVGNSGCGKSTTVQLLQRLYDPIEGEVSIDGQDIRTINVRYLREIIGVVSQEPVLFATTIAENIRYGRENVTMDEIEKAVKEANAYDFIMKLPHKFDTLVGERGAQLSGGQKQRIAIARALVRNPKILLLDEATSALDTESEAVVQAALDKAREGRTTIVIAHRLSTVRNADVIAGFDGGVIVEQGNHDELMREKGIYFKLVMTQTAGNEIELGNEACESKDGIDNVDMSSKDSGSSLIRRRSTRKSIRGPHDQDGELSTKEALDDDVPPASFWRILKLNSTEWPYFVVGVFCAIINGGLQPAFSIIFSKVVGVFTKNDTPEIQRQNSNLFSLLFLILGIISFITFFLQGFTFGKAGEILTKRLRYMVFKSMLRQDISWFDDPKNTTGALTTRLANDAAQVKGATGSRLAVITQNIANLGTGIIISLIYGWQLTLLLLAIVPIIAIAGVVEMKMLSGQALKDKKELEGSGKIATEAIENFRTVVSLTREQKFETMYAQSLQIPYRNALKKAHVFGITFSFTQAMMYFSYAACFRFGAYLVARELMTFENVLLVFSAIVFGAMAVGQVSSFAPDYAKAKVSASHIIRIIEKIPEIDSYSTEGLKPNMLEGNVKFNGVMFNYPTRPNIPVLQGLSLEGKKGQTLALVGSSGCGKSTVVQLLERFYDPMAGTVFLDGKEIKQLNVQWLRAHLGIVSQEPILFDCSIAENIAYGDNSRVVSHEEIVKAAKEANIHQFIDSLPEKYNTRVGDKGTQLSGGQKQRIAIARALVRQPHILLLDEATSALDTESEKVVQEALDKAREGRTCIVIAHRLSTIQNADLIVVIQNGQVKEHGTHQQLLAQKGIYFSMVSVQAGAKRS

SMILES: COc1cc2c(cc1OC)CN(CCc1ccc(NC(=O)c3cccc4c(=O)c5cccc(OC)c5[nH]c34)cc1)CC2 [elacridar, elacridar hydrochloride]
- EC50 at 180 min [1]: 0.115 ± 0.0222 µg/mL
- ED50 at 120 min ([1]; Sprague-Dawley, iv): 1.2 ± 0.1 mg/kg
- DVmax (maximum effect) [2, 6]: 11.4±0.7 ml·ml^−1
- Hill factor n [2, 6]: 5.2±2.8
- Maximum increase in VPM brain distribution (DV) over baseline ([2]; at maximum effective doses, rat brain): up to 11 fold
- Whole-brain DV increase (factor) as compared to baseline scans ([2]; inhibitor 0.3 mg/kg): 1.0±0.6
- Whole-brain DV increase (factor) as compared to baseline scans ([2]; inhibitor 1 mg/kg): 3.5±1.5
- Whole-brain DV increase (factor) as compared to baseline scans ([2]; inhibitor 2 mg/kg): 9.4±1.5
- Whole-brain DV increase (factor) as compared to baseline scans ([2]; inhibitor 5 mg/kg): 8.9±1.4
- Whole-brain DV increase (factor) as compared to baseline scans ([2]; inhibitor 7.5 mg/kg): 11.3±0.2
- DV (Logan) of VPM ([2]; inhibitor 0.3 mg/kg i.v.): 1.22±0.51 (2.9) ml·ml^−1
- DV of VPM (2T4K model) ([2]; inhibitor 0.3 mg/kg i.v.): 1.28±0.54 (3.1) ml·ml^−1
- K1 of VPM (2T4K model) ([2]; inhibitor 0.3 mg/kg i.v.): 0.13±0.10 (16.5) ml·ml^−1·min^−1
- k2 of VPM (2T4K model) ([2]; inhibitor 0.3 mg/kg i.v.): 0.29±0.06 (36.5) min^−1
- k3 of VPM (2T4K model) ([2]; inhibitor 0.3 mg/kg i.v.): 0.14±0.02 (41.4) min^−1
- k4 of VPM (2T4K model) ([2]; inhibitor 0.3 mg/kg i.v.): 0.07±0.01 (16.7) min^−1
- DV (Logan) of VPM ([2]; inhibitor 1 mg/kg i.v.): 4.47±1.51 (0.9) ml·ml^−1
- DV of VPM (2T4K model) ([2]; inhibitor 1 mg/kg i.v.): 4.49±1.51 (2.9) ml·ml^−1
- K1 of VPM (2T4K model) ([2]; inhibitor 1 mg/kg i.v.): 0.57±0.19 (18.1) ml·ml^−1·min^−1
- k2 of VPM (2T4K model) ([2]; inhibitor 1 mg/kg i.v.): 0.33±0.10 (78.9) min^−1
- k3 of VPM (2T4K model) ([2]; inhibitor 1 mg/kg i.v.): 0.29±0.11 (93.2) min^−1
- k4 of VPM (2T4K model) ([2]; inhibitor 1 mg/kg i.v.): 0.19±0.06 (33.3) min^−1
- DV (Logan) of VPM ([2]; inhibitor 2 mg/kg i.v.): 11.72±1.47 (0.6) ml·ml^−1
- DV of VPM (2T4K model) ([2]; inhibitor 2 mg/kg i.v.): 12.00±1.49 (2.4) ml·ml^−1
- K1 of VPM (2T4K model) ([2]; inhibitor 2 mg/kg i.v.): 0.92±0.16 (7.2) ml·ml^−1·min^−1
- k2 of VPM (2T4K model) ([2]; inhibitor 2 mg/kg i.v.): 0.18±0.06 (42.2) min^−1
- k3 of VPM (2T4K model) ([2]; inhibitor 2 mg/kg i.v.): 0.29±0.09 (68.5) min^−1
- k4 of VPM (2T4K model) ([2]; inhibitor 2 mg/kg i.v.): 0.22±0.03 (21.1) min^−1
- DV (Logan) of VPM ([2]; inhibitor 5 mg/kg i.v.): 11.16±1.44 (1.1) ml·ml^−1
- DV of VPM (2T4K model) ([2]; inhibitor 5 mg/kg i.v.): 11.40±1.45 (3.8) ml·ml^−1
- K1 of VPM (2T4K model) ([2]; inhibitor 5 mg/kg i.v.): 0.93±0.26 (17.0) ml·ml^−1·min^−1
- k2 of VPM (2T4K model) ([2]; inhibitor 5 mg/kg i.v.): 0.22±0.06 (58.8) min^−1
- k3 of VPM (2T4K model) ([2]; inhibitor 5 mg/kg i.v.): 0.28±0.05 (79.7) min^−1
- k4 of VPM (2T4K model) ([2]; inhibitor 5 mg/kg i.v.): 0.16±0.01 (35.4) min^−1
- DV (Logan) of VPM ([2]; inhibitor 7.5 mg/kg i.v.): 14.20±0.13 (0.4) ml·ml^−1
- DV of VPM (2T4K model) ([2]; inhibitor 7.5 mg/kg i.v.): 14.55±0.06 (2.6) ml·ml^−1
- K1 of VPM (2T4K model) ([2]; inhibitor 7.5 mg/kg i.v.): 0.98±0.08 (6.4) ml·ml^−1·min^−1
- k2 of VPM (2T4K model) ([2]; inhibitor 7.5 mg/kg i.v.): 0.15±0.02 (43.5) min^−1
- k3 of VPM (2T4K model) ([2]; inhibitor 7.5 mg/kg i.v.): 0.25±0.07 (55.4) min^−1
- k4 of VPM (2T4K model) ([2]; inhibitor 7.5 mg/kg i.v.): 0.22±0.04 (30.3) min^−1
- Inhibition of MRPs, such as MRP1 [3]: do not inhibit
- Time of peak VPM brain uptake (maximum effect) after inhibitor injection [4]: 30 ± 5 min and 30 min
- concentration at 180 min ([5]; brain): 5190 ± 1420 ng/mL
- Kp at 180 min ([5]; brain, iv): 16.8 ± 5.8
- concentration at 180 min ([5]; plasma): 316 ± 61 ng/mL
